Starred links: 1 amine or outer side, 2 acyl side, 3 side chain; linkers in the order of their positions; H or OH if unused. Non-standard residues stand in square brackets, D forms with d. Residues, ends and D or L forms follow the SMILES beside them. *: point of attachment. Tyr(Me) = O-methyl-tyrosine, COc1ccc(C[C@H](N[*:1])C(=O)[*:2])cc1; Phe(F5) = N[C@@H](Cc1c(F)c(F)c(F)c(F)c1F)C(=O)O; hArg = N=C(N)NCCCC[C@H](N)C(=O)O; 12Ado = NCCCCCCCCCCCC(=O)O; Nle = CCCC[C@H](N)C(=O)O; Orn = NCCC[C@H](N)C(=O)O; Abu = CC[C@H](N)C(=O)O; PhAc = O=C(Cc1ccccc1)*
Assays:
[1] = nude mice, 10 μg B.i.d. s.c.
Source text: Eight-weeks-old female athymic nude mice (Hsd: Athymic Nude-Foxn1^nu), obtained from Harlan Laboratories, were housed in sterile cages in a temperature-controlled room with a 12-hours light\12-hours dark schedule. Mice were fed autoclaved chow and water ad libitum. Human myelogenous leukemia cells KG-1, KG-1a, K-562 and THP-1 were used in log phase of growth. Xenografts were initiated by subcutaneous (s.c.) injection of 1×10^7 cells into the right flank of nude mice. For each cell line, once tumor reached an appropriate size (approx. 40 mm3), mice were randomly divided into two groups of 15 animals each, which received s.c. injections twice a day into the left flank of, phosphate-buffered saline (PBS) ([…] containing 0.1% DMSO, or MIA-602 at a dose of 10 μg. […] At the end of the experiment, mice were sacrificed under carbon dioxide followed by cervical dislocation. All animal procedures were performed in compliance with the Guide for the Care and Use of Laboratory Animals published by the NIH, and approved by the Animal Care and Use Committee of the University of Miami.

pituitary = settings: biological activity on the pituitary; cited from earlier work
KG-1 cells = assay: Cellular uptake of fluorescently labeled MIA-602; settings: 2.5 μM Alexa Fluor 555 labelled peptide, 30 minutes
Description: For the detection of cellular uptake, MIA-602 was conjugated to Alexa Fluor 555 according to the manufacturer's instructions (Alexa Fluor 555 NHS ester, tris(triethylammonium salt, Life Technologies, Carlsbad, Calif.). Cells were incubated with 2.5 μM fluorescently labelled peptide or unconjugated fluorophore for 30 minutes (1×10^6 cells/tube). At the end of incubation, cells were washed 3 times in PBS, fixed in 4% paraformaldehyde, mounted, and imaged as described above. ImageJ software (NIH, Bethesda, Md.) was used to recolor the images, for the purpose of enhancing visual perception of cellular uptake.

[2] = molecular target: GHRH splice variant 1 receptor (human)
[3] = molecular target: GHRH splice variant 1 receptor (human); remark: listed apart in the source
[4] = molecular target: GHRH splice variant 1 receptor (human); remark: listed apart in the source
[5] = 30 days, treated animals vs those bearing no tumors

CCCC[C@H](NC(=O)[C@@H](NC(=O)[C@H](CC(=O)O)NC(=O)[C@H](CCC(N)=O)NC(=O)[C@H](CC(C)C)NC(=O)[C@H](CC(C)C)NC(=O)[C@H](CCCN)NC(=O)[C@H](Cc1c[nH]cn1)NC(=O)[C@H](C)NC(=O)[C@H](CO)NC(=O)[C@H](CC(C)C)NC(=O)[C@H](CCC(N)=O)NC(=O)[C@H](CC)NC(=O)[C@H](CC(C)C)NC(=O)[C@@H](NC(=O)[C@H](CCCN)NC(=O)[C@H](Cc1c[nH]cn1)NC(=O)[C@H](Cc1ccc(OC)cc1)NC(=O)[C@H](CCCCNC(=N)N)NC(=O)[C@H](C)NC(=O)[C@@H](NC(=O)[C@H](Cc1c(F)c(F)c(F)c(F)c1F)NC(=O)[C@@H](NC(=O)[C@H](C)NC(=O)[C@H](CC(=O)O)NC(=O)[C@@H](CCCNC(=N)N)NC(=O)[C@H](Cc1ccc(O)cc1)NC(=O)CCCCCCCCCCCNC(=O)Cc1ccccc1)[C@@H](C)CC)[C@@H](C)O)C(C)C)[C@@H](C)CC)C(=O)N[C@H](CCCNC(=N)N)C(=O)N[C@@H](CCCCNC(=N)N)C(N)=O [MIA-602, [PhAc-Ada^0-Tyr^1, D-Arg^2, Fpa5^6, Ala^8, Har^9, Tyr(Me)^10, His^11, Orn^12, Abu^15, His^20, Orn^21, Nle^27, D-Arg^28, Har^29]hGH-RH(1-29)NH2] ({PhAc-12Ado}-Y[dR]DAI[Phe(F5)]TA[hArg]Y(Me)H[Orn]VL[Abu]QLSAH[Orn]LLQDI[Nle][dR][hArg]-NH2)
body weights [1, 5]: No significant differences | weights of various organs (liver, spleen, and kidneys) [1, 5]: No significant differences | macroscopic observation of organs ([1]; after treatment): no differences

Tyr-Ala-Asp-Ala-Ile^5-Phe-Thr-Asn-Ser-Tyr^10-Arg-Lys-Val-Leu-Gly^15-Gln-Leu-Ser-Ala-Arg^20-Lys-Leu-Leu-Gln-Asp^25-Ile-Met-Ser-Arg^29-NH2 [GHRH(1-29)]
potency retained relative to native GHRH (pituitary): ≥ 50%

fluorescently labeled MIA-602: MIA-602 conjugated to Alexa Fluor 555 for the detection of cellular uptake ({PhAc-12Ado}-Y[dR]DAI[Phe(F5)]TA[hArg][Tyr(Me)]H[Orn]VL[Abu]QLSAH[Orn]LLQDI[Nle][dR][hArg]-NH2; also: Alexa Fluor 555 conjugated via NHS ester, site not given here)
cellular uptake (KG-1 cells): not observed

{PhAc-12Ado}-Y[dR]DAI[Phe(F5)]TA[hArg][Tyr(Me)]H[Orn]VL[Abu]QLSAH[Orn]LLQDI[Nle][dR][hArg]-NH2
decrease of phosphorylation of Akt (Western blot, 8 h incubation with MIA-602) [2]: 85% | reduction in cell proliferation (cell count, 5 µM MIA-602, 24 and 48 hours) [3]: 80% | fold-change in expression of cell death-related genes (qPCR array, 24 h MIA-602) [4]: 28.9 fold

Reference: US20200276273A1, “METHOD FOR TREATING MYELOID LEUKEMIA” (UNIVERSITY OF MIAMI, priority 2017, published 2020)
